Test results from patent US20250074910A1, “MENIN INHIBITOR AND USE THEREOF” (HITGEN INC., priority 2021, published 2025).

Experiments:
[1] = Stability in mouse liver microsomes; format: in vitro ADME; conditions: liver microsomes, pH 7.4, 0.5 mg/mL microsomal protein, 1.00 μM compound, NADPH, read-out: Half life T1/2, mouse liver microsomes
How it was run: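 Compound at 1.00 μM incubated at 37° C with 0.5 mg/mL liver microsomal protein and 2.00 mM NADPH in 100 mM phosphate buffer pH 7.4, sampled 0–60 min with acetonitrile quench. Parent remaining by LC-MS/MS; T½ from ln-remaining slope, CLint scaled by microsomal concentration and conversion factor.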

[2] = target: Menin/MLL-4-43 peptide interaction (Homo sapiens (Human), UniProt O00255); test: Menin-MLL interaction inhibitory activity assay (fluorescence polarization competition); format: binding; conditions: FITC-MLL4-43-peptide, Menin recombinant protein
How it was run: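 Menin (8 nM solution) was preincubated 15 min with compound, then FITC-MLL4-43 peptide (10 nM solution) was added and shaken for 60 min at 25 °C. The buffer was 50 mM Tris pH 7.5, 50 mM NaCl, 1 mM DTT. IC50 was derived from fluorescence polarization read at 485/520 nm.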

[3] = Pharmacokinetics test in mouse; format: in vivo, ICR mice; conditions: mice, p.o. 10 mg/kg; for AUC(0-t) / half-life / Cmax: male, ICR, mouse, plasma, po, 10 mg/kg; for Cmax: read-out: Cmax; for F, %: 1 mg/kg for intravenous injection
How it was run: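 Fasted male ICR mice dosed with compound in saline with 1.5 eq HCl, 1 mg/kg i.v. or 10 mg/kg oral gavage (6 mice each). Plasma sampled 5 min–24 h, measured by LC-MS/MS; t½, Cmax, AUC, CL and F% by non-compartmental analysis, mean±SD.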

Menin/MLL-4-43 peptide interaction, sequence (O00255 whole entry, species assumed): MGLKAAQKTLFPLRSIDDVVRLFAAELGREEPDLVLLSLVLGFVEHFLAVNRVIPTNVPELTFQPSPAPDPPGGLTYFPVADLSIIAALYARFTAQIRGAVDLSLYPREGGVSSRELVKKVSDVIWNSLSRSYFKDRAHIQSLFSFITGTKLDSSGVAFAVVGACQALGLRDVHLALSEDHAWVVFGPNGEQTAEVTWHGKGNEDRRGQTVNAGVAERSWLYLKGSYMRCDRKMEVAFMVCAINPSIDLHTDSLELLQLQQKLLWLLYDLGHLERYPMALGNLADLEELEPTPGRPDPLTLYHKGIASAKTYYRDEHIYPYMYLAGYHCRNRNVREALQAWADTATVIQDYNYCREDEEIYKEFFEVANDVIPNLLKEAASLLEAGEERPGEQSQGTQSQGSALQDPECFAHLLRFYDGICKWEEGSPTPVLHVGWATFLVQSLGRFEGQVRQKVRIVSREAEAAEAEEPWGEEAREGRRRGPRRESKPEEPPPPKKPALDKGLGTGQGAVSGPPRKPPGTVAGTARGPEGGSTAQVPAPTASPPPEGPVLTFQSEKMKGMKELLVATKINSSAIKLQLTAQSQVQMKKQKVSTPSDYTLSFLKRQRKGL

half-life at 1 μM [1] [h]	IC50 [2] [nM]	AUC(0-t) [3] [ng·h/mL]	half-life [3] [h]	Cmax [3] [ng/mL]	F, % [3] [%]	SMILES
1.52	34.7	6410	1.17	3030	60	CC(C)N(C(=O)c1cc(F)ccc1Oc1nncnc1N1CC2(CCN(CC3CC4CCC3CC43CCC(=O)N3)CC2)C1)C(C)C (single isomer, unassigned) [Example 15-1a]
> 2	5	3220	1.12	2120	56	CCN(C(=O)c1cc(F)ccc1Oc1cncnc1N1CC2(CCN(C[C@H]3CC[C@]4(CC3)CC(COC)(COC)C(=O)N4)CC2)C1)C(C)C [Example 17]
1.85	6	2180	1.88	919	84	COCC1(COC)C[C@]2(CC[C@@H](CN3CCC4(CC3)CN(c3ncnnc3Oc3ccc(F)cc3C(=O)N(C(C)C)C(C)C)C4)CC2)NC1=O [Example 20]
> 2	16.3	5060	1.06	2260	67	COC[C@H]1C[C@]2(CC[C@@H](CN3CCC4(CC3)CN(c3ncnnc3Oc3ccc(F)cc3C(=O)N(C(C)C)C(C)C)C4)CC2)NC1=O [Example 38-1]
1.08	2.8	1980	0.83	824	55	COC[C@@H]1C[C@]2(CC[C@@H](CN3CCC4(CC3)CN(c3ncnnc3Oc3ccc(F)cc3C(=O)N(C(C)C)C(C)C)C4)CC2)NC1=O [Example 38-2]
